The text below walks through data of a melting point compilation (Tetko et al.; mined from patent text by program, amines drawn as free bases though some values may be those of a salt).

As a reminder, the melting point is the temperature of the solid-liquid transition.

Molecules are shown by their SMILES. Where only a bound is given, the exact number is not on record here.

As for `COc1ccc(C2NCCc3c2[nH]c2ccccc32)cc1` (stereo unspecified), the melting point amounted to 131 °C. `CCOC(=O)CC(C(=O)OCC)N1CCN(CC2CN(c3ccc(C(=N)NC(=O)c4ccccc4)cc3)C(=O)O2)CC1` (stereo unspecified) returned a melting point of 136 °C. `CCCCn1c(=O)[nH]c2cc(Cl)cc(Cl)c2c1=O` came in with a melting point of 198 to 201 °C.

The compound `COC(C)c1nsc2ccc(-n3c(=O)cc(C(F)(F)F)n(C)c3=O)cc12` (stereo unspecified) came in with a melting point of 133 to 135 °C. `COc1cc(C(=O)OCc2ccc3nc(N)nc(N)c3c2)cc(OC)c1OC` displayed a melting point of 223 to 227 °C. `N#Cc1ccc2c(CCC3CCN(Cc4ccccc4)CC3)noc2c1` displayed a melting point of 113 to 114 °C. In the case of `COc1ccccc1-n1ccc(=N)cc1`, the melting point lay within 121 to 124 °C. `CS(=O)(=O)Nc1ccc(OCCBr)c(Cl)c1` came in with a melting point of 96 to 98 °C. Then `CC(=O)C(C)(C)Nc1nc(N)nc(O)c1[N+](=O)[O-]`, with 289 °C. Compound `CCN1C(=O)C(C)(C)c2ccc(C(=O)Nc3ccc(F)cc3)cc21` returned a melting point of 179 to 181 °C. On to `Cn1cc(C(=O)NCc2ccc(Cl)cc2)c(=O)c2cc(CN3CC[C@@H](O)C3)oc21`, for which the melting point was in the range of 189 to 190 °C. The compound `CC(C)(C)OC(=O)COc1ccc(C(=O)O)cc1` yielded a melting point of 119 to 121 °C. In the case of `O=C(NCCN1CCN=C1c1ccccn1)Nc1ccc(C(=O)O)cc1`, the melting point is 220 to 223 °C. Then `Cc1nc(N)c2nc3n(c2c1C)C(C)COC3` (stereo unspecified), with 264 to 267 °C; and `CS(=O)(=O)c1ccc(-c2cnn(-c3cccc(Cl)c3)c(=O)c2C2CCCC2)cc1`, with 155 to 157 °C; and `COC(=O)c1c(C(=O)OC)c(-c2ccccc2)n2c1Cc1ccccc1-2`, with 149 to 151 °C. The compound `CCN1CS(=O)c2cccc(Cl)c21` (stereo unspecified) came in with a melting point of 94 to 98 °C.

As for `CCOC(=O)c1cn(C)c2cc(C(F)(F)F)ccc2c1=O`, the melting point is 222 to 224 °C.

`CC(Cl)(Cl)C(NC(=O)c1ccc(Cl)cc1)NC(=NC#N)Nc1ccc(F)nc1` (stereo unspecified) returned a melting point of 206 to 207 °C. Take `CC(C)(CSc1ccc(Cl)cc1)C(=O)C(Oc1ccc(Cl)cc1)n1cncn1` (stereo unspecified): the melting point came out at 115 °C.

`CCc1noc(C)c1C(=O)Nc1cccc(F)c1` had a melting point of 99.5 to 101 °C. For the compound `CCCCOC(C(=O)Oc1ccc(C(=O)O)cc1)c1ccc2c(c1)C(C)(C)CCC2(C)C` (racemic), the melting point was 129 to 130 °C. `CC1(C)O[C@@H]2[C@H](O1)[C@@H](CO)O[C@H]2n1cnc2c(N)nc(I)nc21`: the melting point was in the range of 185 to 187 °C. As for `O=C(O)C12CC(c3ccccc31)c1ccccc12`, the melting point was 200 °C. `COc1ccc(CCN(C)C(=O)COc2ccc([N+](=O)[O-])cc2)cc1OC` gave a melting point of 121 °C. `CC(C)CN(CC(C)C)c1ccc(C(=O)c2ccccc2)cc1N` yielded a melting point of 59 to 60 °C. Compound `COC(=O)c1cc2cc(OCCn3ccnc3)ccc2s1` yielded a melting point of 127 to 129 °C. Regarding `CC(C)(C)Oc1nc2cc(F)c([N+](=O)[O-])cc2nc1Cl`, the melting point was in the range of 141 to 143 °C. As for `O=C1CCC(c2ccc(Cl)c(C(F)(F)F)c2)=NN1`, the melting point lay within 195 to 198 °C. `Cc1ccc(C(=O)NC2CCN(CCCCl)CC2)cc1` had a melting point of 150 to 152 °C. In turn, `O=C1SCc2c(Cl)c(Cl)c(Cl)c(Cl)c21` displayed a melting point of 181 to 183 °C.

Take `CC(=O)NNC(=O)c1[nH]c2ccccc2c1Cl`: the melting point fell in the range of 253 to 255 °C. The same measure for `CCC(CC)N(O)C(=O)Nc1ccccc1Oc1ccccc1`: 141 to 142 °C; for `Cc1ccc(S(=O)(=O)OCCC2C3=C(CC=CC3)CCc3ccccc32)cc1` (stereo unspecified): 150 to 151 °C. Then `Cc1cc(-n2ccnc2)c2cccc(OCc3c(Cl)ccc(S(=O)(=O)N4CCC[C@H]4C(=O)N4CCN(Cc5cccnc5)CC4)c3Cl)c2n1`, with 102 °C; and `O=C(O)C(=O)c1ccc(OCCSc2ccc3ccccc3c2)cc1`, with 121 to 123 °C; and `C=C(CCCCCCCCCCCCCCCC)CC(CO)COCCCCCCCCCCCCCCCC` (stereo unspecified), with 37 to 38 °C.

Consider `COc1ccc(/C=C(\C#N)c2cccnc2)cc1OC1CCCC1`, for which the melting point was in the range of 86.5 to 87.5 °C. `CC1(C)C(=NO)C(=O)C2(C)CC(O)C12` (stereo unspecified) registered a melting point of 115 to 118 °C. Then `COc1ccccc1Oc1c(NS(=O)(=O)c2ccc(C(C)(C)C)cc2)ncnc1OCCO`, with 143 to 148 °C; and `CN1CC(C(=O)c2oc(C3CCS(=O)(=O)CC3)cc2Cc2ccc(F)cc2)=C(O)C1=O`, with 200 to 203 °C. `CSc1cc2n(c1C(=O)c1ccccc1)CCC2C(=O)O` (stereo unspecified): the melting point is 191 to 192 °C. `CCNc1ccc(NS(=O)(=O)c2ccc(C)cc2)c(C)c1` gave a melting point of 162 to 163 °C. The compound `C=CCNc1nc(NC(C)C)c2scc(C)c2n1` gave a melting point of 106 to 107 °C. In the case of `Cc1nn(C)c(C2=NC(C)C(C)N2)c1N` (stereo unspecified), the melting point came to 250 °C. As to `CC(=NO)c1ccncc1`, the melting point lay within 154 to 155 °C. The compound `CCCOC(=O)N=P(c1ccccc1)(c1ccccc1)c1ccccc1` displayed a melting point of 90 to 91 °C. Then `CC(C)CCNC(=O)c1ccc(-c2nn(Cc3cccc(Cl)c3)c(=S)[nH]2)cc1`, with 218 to 220 °C; and `CCCCc1ncc(/C=C2\C(=O)NC(=O)N2CCCC)n1Cc1ccc(C(=O)O)cc1`, with 163 to 165 °C.

In turn, `CN(c1cccc2cc(-c3ncc(CCl)s3)[nH]c12)S(=O)(=O)c1cccs1` returned a melting point of 204 to 205 °C. Compound `COc1nc2ccc(Br)cc2cc1C(c1ccccc1)n1ccnc1` (stereo unspecified) had a melting point of 161 to 162 °C. `CCCCOc1cc(/C=C(\OCC)C(=O)O)ccc1OCCc1ccc(OS(C)(=O)=O)cc1OC`: the melting point amounted to 112 °C. Then `Cc1ncc2c(c1O)COC2S(C)(=O)=O` (stereo unspecified), with 205 to 206 °C; and `C[C@@H]1Cc2cc(N3C[C@H](C(N)=O)OC3=O)ccc2N1C(=O)CO`, with 198 to 200 °C. Regarding `NC(=O)c1c(C(=O)O)cccc1[N+](=O)[O-]`, the melting point stood at 188 °C. Turning to `CNC(=O)Nc1cc2c(c3c1OC(C)(C)C3)C(c1ccccc1)=NC(C)(C)C2`, the melting point was in the range of 209 to 211 °C. Compound `COc1ccc2c3cc(C)ccc3n(CC3CCCCC3)c2c1` yielded a melting point of 136 to 137 °C.

Turning to `Cc1c(Br)cc(-c2ccc(=O)[nH]n2)c(O)c1Br`, the melting point was > 280 °C. For the compound `C=Cc1c[nH]c(=O)nc1N`, the melting point is > 290 °C. In turn, `OCc1ccc(-c2c3ccccc3nn2Cc2ccco2)cc1` gave a melting point of 129 to 130 °C. For the compound `O=C1CCC(Nc2ccc3[nH]c(=O)c(C(=O)O)cc3c2)N1` (stereo unspecified), the melting point was > 300 °C.

Turning to `CC[Si](CC)(CC)c1ccc2c(c1)cc(C(=O)Nc1ccc(N3CCC3)nc1)n2Cc1cccc(F)c1`, the melting point fell in the range of 166 to 168 °C. Then `CCOC(=O)c1cc2cc([Si](C)(C)C)ccc2[nH]1`, with 114 to 115 °C; and `O[C@H]1c2cc(Oc3ccccn3)ccc2OC[C@H]1Cc1cccnc1` (relative stereo), with 67 to 68 °C; and `COc1cc(CCC(=O)CC(=O)c2ccc(-c3ccccc3)cc2)ccc1O`, with 118 to 119 °C. Turning to `NC(=S)NC[C@H]1CN(c2ccc(N3CCOCC3)c(F)c2)C(=O)O1`, the melting point was 199 to 200 °C.
